Laboratory results from ChEMBL document CHEMBL5625174, “Are inhibitors of histone deacetylase 8 (HDAC8) effective in hematological cancers especially acute myeloid leukemia (AML) and acute lymphoblastic leukemia (ALL)?” (Eur J Med Chem, 2023).

Assays:
U-937 = test: Cytotoxicity against human U-937 cells assessed as reduction in cell viability; format: functional, cell-based
Jurkat E6.1 = test: Cytotoxicity against human Jurkat E6.1 cells assessed as reduction in cell viability; format: functional, cell-based
MOLT-4 = test: Cytotoxicity against human MOLT-4 cells assessed as reduction in cell viability; format: functional, cell-based
Histone deacetylase 8 = molecular target: T1, Histone deacetylase 8 (Homo sapiens, UniProt Q9BY41); test: Inhibition of HDAC8 (unknown origin) by fluorescence based assay
T1 sequence (Q9BY41 whole entry): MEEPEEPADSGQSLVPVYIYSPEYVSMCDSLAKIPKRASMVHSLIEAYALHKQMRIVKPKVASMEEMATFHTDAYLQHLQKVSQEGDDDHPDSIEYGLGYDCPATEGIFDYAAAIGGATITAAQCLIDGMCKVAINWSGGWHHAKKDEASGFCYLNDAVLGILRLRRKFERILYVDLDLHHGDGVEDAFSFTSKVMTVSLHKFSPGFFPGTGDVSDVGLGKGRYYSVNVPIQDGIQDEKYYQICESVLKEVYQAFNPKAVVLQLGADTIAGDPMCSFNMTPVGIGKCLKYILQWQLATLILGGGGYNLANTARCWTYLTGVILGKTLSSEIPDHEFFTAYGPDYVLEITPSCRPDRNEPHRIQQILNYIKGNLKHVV

Histone deacetylase = test: Inhibition of HDAC (unknown origin) using Fluoro-Substrate Peptide as substrate by fluorescence assay; format: protein assay, Homo sapiens

`CCCCNC(=O)[C@H](CCC(=O)O)NC(=O)Cc1ccc(-c2ccccc2)cc1` showed an IC50 (U-937) greater than 35 µM, an IC50 (Jurkat E6.1) of less than 35 µM and an IC50 (MOLT-4) of less than 35 µM.
With `O=C(O)CC[C@H](NC(=O)Cc1ccccc1)C(=O)NC1CCCCC1` the IC50 (U-937) was no more than 35 µM, the IC50 (Jurkat E6.1) was no more than 35 µM and the IC50 (MOLT-4) was greater than 35 µM.
Compound `CCCCCNC(=O)[C@H](CCC(=O)O)NC(=O)Cc1ccc(Cl)cc1Cl` has an IC50 (U-937) of less than 35 µM, an IC50 (Jurkat E6.1) of less than 35 µM and an IC50 (MOLT-4) of less than 35 µM.
Work on `CC(C)(C)NC(=O)[C@H](CCC(=O)O)NC(=O)Cc1ccc([N+](=O)[O-])cc1` yielded an IC50 (U-937) greater than 35 µM, an IC50 (Jurkat E6.1) greater than 35 µM and an IC50 (MOLT-4) of less than 35 µM.
Work on `O=C(O)CC[C@H](NC(=O)Cc1ccc(Cl)cc1)C(=O)NCc1ccccc1` yielded an IC50 (Histone deacetylase 8) of no more than 10 µM and an IC50 (Histone deacetylase) greater than 10 µM.
`CCCNC(=O)[C@H](CCC(=O)O)NC(=O)Cc1ccc(-c2ccccc2)cc1` gave an IC50 (U-937) greater than 35 µM, an IC50 (Jurkat E6.1) of less than 35 µM and an IC50 (MOLT-4) of less than 35 µM.
Compound `CCCNC(=O)[C@H](CCC(=O)O)NC(=O)Cc1ccccc1` has an IC50 (U-937) greater than 35 µM, an IC50 (Jurkat E6.1) of no more than 35 µM and an IC50 (MOLT-4) of no more than 35 µM.
`O=C(O)CC[C@H](NC(=O)Cc1ccc(Br)cc1)C(=O)NCc1ccccc1` showed an IC50 (U-937) greater than 35 µM, an IC50 (Jurkat E6.1) of no more than 35 µM and an IC50 (MOLT-4) of no more than 35 µM. It also gave an IC50 (Histone deacetylase 8) of no more than 10 µM and an IC50 (Histone deacetylase) greater than 10 µM.
For `O=C(O)CC[C@H](NC(=O)Cc1ccc(-c2ccccc2)cc1)C(=O)NCc1ccccc1`, the IC50 (U-937) was less than 35 µM, the IC50 (Jurkat E6.1) was less than 35 µM and the IC50 (MOLT-4) was less than 35 µM. It also gave an IC50 (Histone deacetylase 8) of no more than 10 µM and an IC50 (Histone deacetylase) greater than 10 µM.
Work on `O=C(O)CC[C@H](NC(=O)Cc1ccc(Br)cc1)C(=O)NCc1ccccc1Cl` yielded an IC50 (U-937) greater than 35 µM, an IC50 (Jurkat E6.1) greater than 35 µM and an IC50 (MOLT-4) of less than 35 µM. The IC50 (Histone deacetylase 8) was no more than 10 µM and the IC50 (Histone deacetylase) was greater than 10 µM.
Work on `CCCCCNC(=O)[C@H](CCC(=O)O)NC(=O)Cc1ccccc1Br` yielded an IC50 (U-937) greater than 35 µM, an IC50 (Jurkat E6.1) greater than 35 µM and an IC50 (MOLT-4) of less than 35 µM.
In the case of `CC(C)(C)NC(=O)[C@H](CCC(=O)O)NC(=O)Cc1ccc(Cl)cc1`, the IC50 (U-937) is reported as greater than 35 µM, the IC50 (Jurkat E6.1) is reported as less than 35 µM and the IC50 (MOLT-4) is reported as less than 35 µM.
`O=C(O)CC[C@H](NC(=O)Cc1ccccc1)C(=O)NCc1ccccc1` gave an IC50 (U-937) greater than 35 µM, an IC50 (Jurkat E6.1) greater than 35 µM and an IC50 (MOLT-4) greater than 35 µM.
For `CCCCCCNC(=O)[C@H](CCC(=O)O)NC(=O)Cc1ccc(Cl)cc1Cl`, the IC50 (U-937) was no more than 35 µM, the IC50 (Jurkat E6.1) was no more than 35 µM and the IC50 (MOLT-4) was no more than 35 µM. It also gave an IC50 (Histone deacetylase 8) of no more than 10 µM and an IC50 (Histone deacetylase) greater than 10 µM.
With `O=C(O)CC[C@H](NC(=O)Cc1ccc(Br)cc1)C(=O)NCc1ccc(Cl)cc1` the IC50 (U-937) was greater than 35 µM, the IC50 (Jurkat E6.1) was less than 35 µM and the IC50 (MOLT-4) was less than 35 µM. For the same compound, the IC50 (Histone deacetylase 8) was no more than 10 µM and the IC50 (Histone deacetylase) was greater than 10 µM.
Work on `COc1ccc(CC(=O)N[C@@H](CCC(=O)O)C(=O)NCc2ccccc2)cc1` yielded an IC50 (U-937) greater than 35 µM, an IC50 (Jurkat E6.1) of no more than 35 µM and an IC50 (MOLT-4) of no more than 35 µM.
For `CCCCCNC(=O)[C@H](CCC(=O)O)NC(=O)Cc1ccccc1F`, the IC50 (U-937) was greater than 35 µM, the IC50 (Jurkat E6.1) was less than 35 µM and the IC50 (MOLT-4) was less than 35 µM.
Compound `CC(C)NC(=O)[C@H](CCC(=O)O)NC(=O)Cc1ccccc1F` has an IC50 (U-937) greater than 35 µM, an IC50 (Jurkat E6.1) greater than 35 µM and an IC50 (MOLT-4) greater than 35 µM.
`CCCNC(=O)[C@H](CCC(=O)O)NC(=O)Cc1ccc(Cl)cc1` showed an IC50 (U-937) greater than 35 µM, an IC50 (Jurkat E6.1) of no more than 35 µM and an IC50 (MOLT-4) greater than 35 µM.
In the case of `CCCNC(=O)[C@H](CCC(=O)O)NC(=O)Cc1ccc(Br)cc1`, the IC50 (U-937) is reported as greater than 35 µM, the IC50 (Jurkat E6.1) is reported as no more than 35 µM and the IC50 (MOLT-4) is reported as no more than 35 µM.
With `O=C(O)CC[C@H](NC(=O)Cc1ccccc1F)C(=O)Nc1ccccc1` the IC50 (U-937) was greater than 35 µM, the IC50 (Jurkat E6.1) was less than 35 µM and the IC50 (MOLT-4) was less than 35 µM.
Compound `CCCCCNC(=O)[C@H](CCC(=O)O)NC(=O)Cc1ccccc1` has an IC50 (U-937) greater than 35 µM, an IC50 (Jurkat E6.1) of no more than 35 µM and an IC50 (MOLT-4) of no more than 35 µM.
`COc1ccc(CNC(=O)[C@H](CCC(=O)O)NC(=O)Cc2ccc(Br)cc2)cc1` was tested, and the IC50 (U-937) was greater than 35 µM, the IC50 (Jurkat E6.1) was less than 35 µM and the IC50 (MOLT-4) was less than 35 µM. It also gave an IC50 (Histone deacetylase 8) of no more than 10 µM and an IC50 (Histone deacetylase) greater than 10 µM.
In the case of `COc1ccc(CC(=O)N[C@@H](CCC(=O)O)C(=O)NC(C)(C)C)cc1`, the IC50 (U-937) is reported as greater than 35 µM, the IC50 (Jurkat E6.1) is reported as greater than 35 µM and the IC50 (MOLT-4) is reported as greater than 35 µM.
For `CCCCNC(=O)[C@H](CCC(=O)O)NC(=O)Cc1ccc([N+](=O)[O-])cc1`, the IC50 (U-937) was greater than 35 µM, the IC50 (Jurkat E6.1) was less than 35 µM and the IC50 (MOLT-4) was less than 35 µM.
`O=C(O)CC[C@H](NC(=O)Cc1ccc(Br)cc1)C(=O)NCc1ccc(Cl)c(Cl)c1` showed an IC50 (U-937) greater than 35 µM, an IC50 (Jurkat E6.1) of less than 35 µM and an IC50 (MOLT-4) of less than 35 µM. It also gave an IC50 (Histone deacetylase 8) of no more than 10 µM and an IC50 (Histone deacetylase) greater than 10 µM.
For `CCCCNC(=O)[C@H](CCC(=O)O)NC(=O)Cc1ccccc1Cl`, the IC50 (U-937) was greater than 35 µM, the IC50 (Jurkat E6.1) was no more than 35 µM and the IC50 (MOLT-4) was no more than 35 µM.
`CC(C)CNC(=O)[C@H](CCC(=O)O)NC(=O)Cc1ccccc1F` was tested, and the IC50 (U-937) was greater than 35 µM, the IC50 (Jurkat E6.1) was no more than 35 µM and the IC50 (MOLT-4) was no more than 35 µM.
For `Cc1ccccc1CC(=O)N[C@@H](CCC(=O)O)C(=O)Nc1ccccc1`, the IC50 (U-937) was greater than 35 µM, the IC50 (Jurkat E6.1) was greater than 35 µM and the IC50 (MOLT-4) was greater than 35 µM.
Compound `O=C(O)CC[C@H](NC(=O)Cc1ccc([N+](=O)[O-])cc1)C(=O)NCc1ccccc1` has an IC50 (U-937) greater than 35 µM, an IC50 (Jurkat E6.1) of less than 35 µM and an IC50 (MOLT-4) of less than 35 µM.
For `O=C(O)CC[C@H](NC(=O)Cc1ccc(Cl)cc1)C(=O)NC1CCCCC1`, the IC50 (U-937) was greater than 35 µM, the IC50 (Jurkat E6.1) was less than 35 µM and the IC50 (MOLT-4) was less than 35 µM.
